These results are taken from US20140023611A1 (priority 2010, published 2014).

For one test, the target named is T1, rat NaP2b (SLC34A2) (Rattus norvegicus, UniProt Q9JJ09).
T1 construct: host or cells: HEK293
T1 sequence (Q9JJ09 1-695): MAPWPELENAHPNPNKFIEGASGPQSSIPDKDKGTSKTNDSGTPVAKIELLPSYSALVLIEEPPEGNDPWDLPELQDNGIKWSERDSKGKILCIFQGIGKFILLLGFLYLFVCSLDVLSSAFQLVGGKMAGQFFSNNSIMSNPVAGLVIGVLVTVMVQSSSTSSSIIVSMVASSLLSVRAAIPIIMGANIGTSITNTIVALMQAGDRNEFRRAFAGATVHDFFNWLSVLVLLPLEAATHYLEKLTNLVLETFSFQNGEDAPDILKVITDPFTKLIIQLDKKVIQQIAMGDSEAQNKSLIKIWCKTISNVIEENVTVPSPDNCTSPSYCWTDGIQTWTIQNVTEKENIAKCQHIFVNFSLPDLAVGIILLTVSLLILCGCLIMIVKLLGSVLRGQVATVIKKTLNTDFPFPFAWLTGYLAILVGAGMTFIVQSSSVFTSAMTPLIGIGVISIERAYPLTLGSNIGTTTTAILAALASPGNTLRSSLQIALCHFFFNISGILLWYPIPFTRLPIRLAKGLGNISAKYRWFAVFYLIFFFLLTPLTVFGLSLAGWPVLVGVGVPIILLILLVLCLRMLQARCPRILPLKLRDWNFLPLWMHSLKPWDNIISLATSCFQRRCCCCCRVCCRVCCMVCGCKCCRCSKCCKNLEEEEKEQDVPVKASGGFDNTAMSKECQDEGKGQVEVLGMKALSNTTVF
In words: Inhibition of NaP2b-mediated Pi (33P) uptake in transfected HEK293 cells, rat NaP2b. The format is cell-based. As to conditions: 33P Pi uptake, 0.1 mM phosphate, value given as pIC50 range. The gist of the method:
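HEK293 cells were transiently transfected with NaP2b cDNA using Lipofectamine and grown near confluence. Compounds were tested at twelve concentrations from 0.1 nM to 30 uM in duplicate, and 33P-phosphate uptake was counted by scintillation after lysis. Results are expressed as pIC50.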

Another test deals with T2, human NaP2b (SLC34A2) (Homo sapiens, UniProt O95436).
T2 construct: host or cells: HEK293
T2 sequence (O95436 1-690): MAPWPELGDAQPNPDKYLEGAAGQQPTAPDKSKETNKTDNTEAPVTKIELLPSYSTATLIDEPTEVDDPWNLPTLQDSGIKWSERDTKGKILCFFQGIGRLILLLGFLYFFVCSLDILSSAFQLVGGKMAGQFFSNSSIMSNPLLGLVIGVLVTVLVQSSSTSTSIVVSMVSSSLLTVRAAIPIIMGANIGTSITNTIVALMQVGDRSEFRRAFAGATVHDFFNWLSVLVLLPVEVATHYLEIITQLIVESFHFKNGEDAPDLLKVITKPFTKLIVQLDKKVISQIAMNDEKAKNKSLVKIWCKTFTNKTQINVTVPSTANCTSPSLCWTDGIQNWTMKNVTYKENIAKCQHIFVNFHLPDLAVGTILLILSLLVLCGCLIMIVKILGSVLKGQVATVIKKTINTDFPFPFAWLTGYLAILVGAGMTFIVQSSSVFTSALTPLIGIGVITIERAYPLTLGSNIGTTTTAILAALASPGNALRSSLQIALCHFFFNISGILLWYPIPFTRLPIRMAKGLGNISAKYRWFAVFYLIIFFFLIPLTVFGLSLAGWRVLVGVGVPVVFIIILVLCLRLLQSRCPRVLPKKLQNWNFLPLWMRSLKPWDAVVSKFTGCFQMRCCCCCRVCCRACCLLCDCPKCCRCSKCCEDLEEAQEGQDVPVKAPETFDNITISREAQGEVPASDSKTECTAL
Briefly: Inhibition of NaP2b-mediated Pi (33P) uptake in transfected HEK293 cells, human NaP2b. The format is cell-based. Conditions: for IC50: read-out: pIC50 range for human NaP2b (converted). As for the experimental part:
HEK293 cells were obtained from the American Type Culture collection and propagated per their instructions. Expression clones for rat and human NaP2b (SLC34A2) were obtained from Open Biosystems (Catalog numbers MRN1768-9510282, and MHS1010-99823026, respectively). The sequence of the human protein was mutated to insert a threonine after residue 37, and to introduce a N39D mutation.
The rate of phosphate (Pi) uptake into HEK293 cells was measured using a modification of the method described by Mohrmann et al. (Mohrmann, I., Mohrmann, M., Biber, J., and Murer, H. (1986) Am. J. Phys. 250(3 Pt 1):G323-30.) Transfected HEK293 cells were treated with a pharmacological agent to minimize endogenous PiT-mediated phosphate transport activity, such that the only remaining sodium-dependent phosphate transport activity is that which was bestowed by introduction of the NaP2b genes.
Cells were seeded into 96-well plates at 25,000 cells/well and cultured overnight. Lipofectamine 2000 (Invitrogen) was used to introduce the NaP2b cDNA, and the cells were allowed to approach confluence during a second overnight incubation. […] Cells were then overlayed with either choline uptake buffer or sodium uptake buffer (14 mM Tris, 137 mM sodium chloride, 5.4 mM KCl, 2.8 mM CaCl2, 1.2 mM MgSO4, 100 uM KH2PO4, PiT-silencing agent, 1 mg/mL Bovine Serum Albumin, pH 7.4) containing 6-9 uCi/mL ^33P orthophosphoric acid (Perkin Elmer) and test compound. Each compound was tested at twelve concentrations ranging from 0.1 nM to 30 uM. Assays were run in duplicate.
After incubation for 3-30 minutes at room temperature, assay mixtures were removed, and the cells were washed twice with ice cold stop solution (137 mM sodium chloride, 14 mM Tris, pH 7.4). Cells were lysed by addition of 20 μL 0.1% Tween 80 followed by 100 μL scintillation fluid, and counted using a TopCount (Perkin Elmer).
pIC50 (the negative log of the IC50) values of the test compounds were calculated using GraphPad Prism.

Regarding “16-(3-(4-(16-(3-(4-(diethylamino)-2-(4-(3-(trifluoromethyl)benzylcarbamoyl)pyridin-2-yl)phenylcarbamoyl)phenyl)-4,7,10,13-tetraoxahexadecane)piperazine-1-carbonyl)phenyl)-4,7,10,13-tetraoxahexadecan-1-oic acid [Example 293]”, on rat NaP2b (SLC34A2), the “pIC50 range for rat Nap2b” value is recorded as 5.1-6.0. Moreover, the “pIC50 range for human NaP2b” value against human NaP2b (SLC34A2) (33P Pi uptake, transfected HEK293 cells, 0.1 mM phosphate, value given as pIC50 range) is listed as 5.1-6.0.
On to `CN(CCO)C(=O)c1cccc(C(=O)Nc2ccc(N3CCCCC3)cc2-c2cc(C(=O)NC3CCCc4ccccc43)ccn2)c1` (stereo in doubt) [Example 115, (S)—N^1-(2-hydroxyethyl)-N′-methyl-N^3-(4-(piperidin]-yl)-2-(4-((1,2,3,4-tetrahydronaphthalen-1-yl)carbamoyl)pyridin-2-yl)phenyl)isophthalamide], for which the IC50 against rat NaP2b (SLC34A2) and at human NaP2b (SLC34A2) was under 1 µM each time.
`O=C(O)CCSCc1cccc(C(=O)Nc2ccc(N3CCCCC3)cc2-c2cc(NCc3cccc(C(F)(F)F)c3)ncn2)c1` [Example 3.1, 3-((3-((4-(Piperidin-1-yl)-2-(6-((3-(trifluoromethyl)benzyl)amino)pyrimidin-4-yl)phenyl)carbamoyl)benzyl)thio)propanoic acid]: the IC50 on rat NaP2b (SLC34A2) and on human NaP2b (SLC34A2) was 1 to 7.94 µM each time.
Consider `COc1ccc(CNc2cc(-c3cc(N4CCCCC4)ccc3NC(=O)c3cccc(CSCCC(=O)O)c3)ncn2)cc1OC` [Example 3.6, 3-((3-((2-(6-((3,4-Dimethoxybenzyl)amino)pyrimidin-4-yl)-4-(piperidin-1-yl)phenyl)carbamoyl)benzyl)thio)propanoic acid], for which the IC50 on rat NaP2b (SLC34A2) and at human NaP2b (SLC34A2) was 10 to 31.6 µM each time.
Regarding `O=C(O)CCSCc1cccc(C(=O)Nc2ccc(N3CCCCC3)cc2-c2cc(NCc3ccccc3)ncn2)c1` [Example 3.7, 3-((3-((2-(6-(Benzylamino)pyrimidin-4-yl)-4-(piperidin-1-yl)phenyl)carbamoyl)benzyl)thio)propanoic acid], the IC50 at rat NaP2b (SLC34A2) and at human NaP2b (SLC34A2) was 10 to 31.6 µM each time.
Regarding `O=C(O)CCSCc1cccc(C(=O)Nc2ccc(N3CCCCC3)cc2-c2cc(Nc3cccc(C(F)(F)F)c3)ncn2)c1` [Example 3.10, 3-((3-((4-(Piperidin-1-yl)-2-(6-((3-(trifluoromethyl)phenyl)amino)pyrimidin-4-yl)phenyl)carbamoyl)benzyl)thio)propanoic acid], the results for the IC50 at rat NaP2b (SLC34A2) and on human NaP2b (SLC34A2) were 1 to 7.94 µM and 10 to 31.6 µM, respectively.
Take `O=C(CCSCc1cccc(C(=O)Nc2ccc(N3CCCCC3)cc2-c2cc(C(=O)NCc3cccc(C(F)(F)F)c3)ccn2)c1)NCCOCCOCCOCCOCCOCCOCCOCCO` [Example 4.19, 2-(2-(3-(29-Hydroxy-5-oxo-9,12,15,18,21,24,27-heptaoxa-2-thia-6-azanonacosyl)benzamido)-5-(piperidin-1-yl)phenyl)-N-(3-(trifluoromethyl)benzyl)isonicotinamide]: the IC50 at rat NaP2b (SLC34A2) and on human NaP2b (SLC34A2) was 1 to 7.94 µM each time.
`CN(Cc1cncn1C)C(=O)c1cccc(C(=O)Nc2ccc(N3CCCCC3)cc2-c2cc(C(=O)NCc3cccc(C(F)(F)F)c3)ccn2)c1` [Example 4.26]: the figures for the IC50 against rat NaP2b (SLC34A2) and on human NaP2b (SLC34A2) were 1 to 7.94 µM and under 1 µM, respectively.
In the case of `O=C(O)CCOCCOCCOCCNC(=O)c1cccc2c1ccn2Cc1cccc(C(=O)Nc2ccc(N3CCCCC3)cc2-c2cc(C(=O)NCc3cccc(C(F)(F)F)c3)ccn2)c1` [Example 9.2, 1-Oxo-1-(1-(3-((4-(piperidin-1-yl)-2-(4-((3-(trifluoromethyl)benzyl)carbamoyl)pyridin-2-yl)phenyl)carbamoyl)benzyl)-1H-indol-4-yl)-5,8,11-trioxa-2-azatetradecan-14-oic acid], the figures for the IC50 at rat NaP2b (SLC34A2) and at human NaP2b (SLC34A2) were 1 to 7.94 µM and under 1 µM, respectively.
As for `CN(CCN1CCOCC1)C(=O)c1cccc(C(=O)Nc2ccc(N3CCCCC3)cc2-c2cc(C(=O)N[C@@H]3CCCc4ccccc43)ccn2)c1` [Example 97], the IC50 against rat NaP2b (SLC34A2) and at human NaP2b (SLC34A2) was 1 to 7.94 µM throughout.
As for `CN(CCN1CCOCC1)C(=O)c1cccc(C(=O)Nc2ccc(N3CCCCC3)cc2-c2cc(C(=O)NCc3ccc(C(C)(C)C)cc3)ccn2)c1` [Example 122, N1-(2-(4-((4-tert-butylbenzyl)carbamoyl)pyridin-2-yl)-4-(piperidin-1-yl)phenyl)-N3-methyl-N3-(2-morpholinoethyl)isophthalamide], the IC50 against rat NaP2b (SLC34A2) and at human NaP2b (SLC34A2) was 1 to 7.94 µM in each case.
For `CN(CCN1CCOCC1)C(=O)c1cccc(C(=O)Nc2ccc(OC3CCC3)cc2-c2cc(C(=O)N[C@H]3CCCc4ccccc43)ccn2)c1` [Example 132, N1-(2-(4-(((S)-1,2,3,4-tetrahydronaphthalen-1-yl)carbamoyl)pyridin-2-yl)-4-cyclobutoxyphenyl)-N3-methyl-N3-(2-morpholinoethyl)isophthalamide], the IC50 against rat NaP2b (SLC34A2) and on human NaP2b (SLC34A2) was under 1 µM throughout.
For `CCN(CC)c1ccc(NC(=O)c2cccc(CSCCOCCOCCOCCOCCC(=O)NC(CO)CO)c2)c(-c2cc(C(=O)N[C@H]3CCCc4ccccc43)ccn2)c1` [Example 159, (S)-2-(5-(diethylamino)-2-(3-(20-hydroxy-19-(hydroxymethyl)-17-oxo-5,8,11,14-tetraoxa-2-thia-18-azaicosyl)benzamido)phenyl)-N-(1,2,3,4-tetrahydronaphthalen-1-yl)isonicotinamide], the IC50 on rat NaP2b (SLC34A2) and at human NaP2b (SLC34A2) was under 1 µM in each case.
Consider `CCN(CC)c1ccc(NC(=O)c2cccc(COCCOCCOCCOCCOC(=O)NCCOCCOCCOCCOCCOCCOCCOC)c2)c(-c2cc(C(=O)NCc3cccc(C(F)(F)F)c3)ccn2)c1` [Example 175, 1-(3-(4-(diethylamino)-2-(4-(3-(trifluoromethyl)benzylcarbamoyl)pyridin-2-yl)phenylcarbamoyl)phenyl)-2,5,8,11-tetraoxamidecan-13-yl 2,5,8,11,14,17,20-heptaoxadocosan-22-ylcarbamate], for which the IC50 at rat NaP2b (SLC34A2) and at human NaP2b (SLC34A2) was 1 to 7.94 µM throughout.
As for `CCN(CC)c1ccc(NC(=O)c2cccc(COCCOCCOCCOCCOCCOCCN(CCO)CCO)c2)c(-c2cc(C(=O)NCc3cccc(C(F)(F)F)c3)ccn2)c1` [Example 178, 2-(5-(diethylamino)-2-(3-(22-hydroxy-20-(2-hydroxyethyl)-2,5,8,11,14,17-hexaoxa-20-azadocosyl)benzamido)phenyl)-N-(3-(trifluoromethyl)benzyl)isonicotinamide], the IC50 against rat NaP2b (SLC34A2) and on human NaP2b (SLC34A2) was 1 to 7.94 µM throughout.
